Four compounds from patent US4382084A, “Antibiotics” (Beecham Group Limited, priority 1975, dated 1983) can be followed below.

Each structure is given as a SMILES string.

For data set [1], the system named is E. coli JT10 β-lactamase. The data set can be described thus: β-lactamase inhibition assay (Belgian Patent No. 827926). The data set is classed as biochemical. Particulars: enzyme of E. coli JT10. Here is the method: (§1) When the compound prepared by the method of Example 1 was tested against certain enzymes by the β-lactamase inhibition assay described in Belgian Patent No. 827926 the following ^I 50 values were obtained: […]

In data set [2] the target is E. coli JT4 β-lactamase (Escherichia coli, UniProt P62593). The data set is described as above. Particulars: enzyme of E. coli JT4; read-out: Approximate I50 (converted). It is filed as biochemical. Here is the method: as §1
Chain of E. coli JT4 β-lactamase (P62593 24-286 limits assumed): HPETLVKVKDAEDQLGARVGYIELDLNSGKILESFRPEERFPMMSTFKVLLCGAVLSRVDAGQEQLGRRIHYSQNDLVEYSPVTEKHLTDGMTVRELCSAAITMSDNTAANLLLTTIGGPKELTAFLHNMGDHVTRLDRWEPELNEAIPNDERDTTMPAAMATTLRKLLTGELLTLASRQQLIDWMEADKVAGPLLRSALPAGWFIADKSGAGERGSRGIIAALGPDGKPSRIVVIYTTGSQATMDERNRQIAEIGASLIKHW
In data set [3] the target is Klebsiella aerogenes AE70 β-lactamase. Described as above. It is filed as biochemical. Particulars: enzyme of Klebsiella aerogenes AE70. Here is the method:
as §1

Data set [4] addresses Staphylococcus aureus (Russell) β-lactamase (Staphylococcus aureus, UniProt P00807). Described as above. Particulars: enzyme of Staphylococcus aureus (Russell); read-out: Approximate I50 (converted). It is filed as biochemical. Here is the method:
as §1

Data set [5] is described as follows: Acute toxicity in mice. Particulars: mouse, in vivo.
Data set [6] has as its system Staphylococcus aureus Russell. As to the kind of experiment: MIC test of synergy with ampicillin. The data set is classed as cell-based. Particulars: ampicillin administered separately, read-out: MIC of ampicillin alone (not inhibited by). Here is the method: b. […] The following test results were obtained using a strain of Staphylococcus aureus Russell which is neither inhibited by 250 μg/ml of ampicillin nor inhibited by 5 μg/ml of synergist aministered separately.

Chain of Staphylococcus aureus (Russell) β-lactamase (P00807 25-281): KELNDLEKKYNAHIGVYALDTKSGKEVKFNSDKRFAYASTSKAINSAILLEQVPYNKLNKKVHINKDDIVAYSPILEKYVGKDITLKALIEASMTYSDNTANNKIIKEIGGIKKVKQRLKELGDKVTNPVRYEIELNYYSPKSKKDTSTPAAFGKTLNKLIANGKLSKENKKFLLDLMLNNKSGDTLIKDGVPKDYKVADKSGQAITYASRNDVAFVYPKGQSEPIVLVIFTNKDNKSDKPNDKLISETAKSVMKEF

For the compound `O=C(OCc1ccccc1)[C@H]1/C(=C/CN(Cc2ccccc2)Cc2ccccc2)O[C@@H]2CC(=O)N21` [Example 1], the “Approximate I50” value in data set [1] worked out at 0.24 mg/mL; in data set [3], 0.40 mg/mL. Also, the IC50 in data set [2] is 42.7 µM; in data set [4], 128 µM.
As to `C=CCN(CC=C)C/C=C1\O[C@@H]2CC(=O)N2[C@H]1C(=O)OCc1ccccc1` [Example 8, Benzyl diallylaminodeoxyclavulanate], the LD50 is greater than 500 mg/kg in data set [5] (oral route) and greater than 500 mg/kg in data set [5] (sc, sub-cutaneous route).
In the case of `CCCN(C/C=C1\O[C@@H]2CC(=O)N2[C@H]1C(=O)O)CCC` [Example 12, 9-(N,N-dipropylamino)-9-deoxyclavulanio acid], the LD50 in data set [5] (oral route) is greater than 500 mg/kg; in data set [5] (sc, sub-cutaneous route) it was greater than 500 mg/kg.
For the compound `CC1(C)S[C@@H]2[C@H](NC(=O)[C@H](N)c3ccccc3)C(=O)N2[C@H]1C(=O)O` [ampicillin], the minimal inhibitory concentration (MIC) in data set [6] was greater than 250 µg/mL.
